Source: ChEMBL document CHEMBL5550161, “Discovery of novel small molecules targeting the USP21/JAK2/STAT3 axis for the treatment of triple-negative breast cancer” (Eur J Med Chem, 2024)
The source made the active and inactive calls. No cut-off for these calls is given here.

Columns and labels:
MDA-MB-231 = experiment: Anti-proliferative activity against human MDA-MB-231 cells assessed as cell growth inhibition incubated for 72 hrs by MTT assay; format: functional, cell-based; settings: MDA-MB-231, 72 h
Hs-578T = experiment: Anti-proliferative activity against human Hs-578T cells assessed as cell growth inhibition incubated for 72 hrs by MTT assay; format: functional, cell-based
HCC1806 [1] = experiment: Antitumor activity against human HCC1806 cells xenografted in Balb/c mouse at 2.5 mg/kg, ip administered once a week measured after 14 days relative to control; format: functional; settings: HCC1806, 336 h, time 14 day, read-out: TGI
HCC1806 [2] = experiment: Anti-proliferative activity against human HCC1806 cells assessed as cell growth inhibition incubated for 72 hrs by MTT assay; format: functional, cell-based; settings: HCC1806, 72 h
HCC1806 [3] = experiment: Antitumor activity against human HCC1806 cells xenografted in Balb/c mouse assessed as reduction in tumor weight at 2.5 mg/kg, ip administered once a week measured after 14 days; format: functional, organism-based; settings: time 14.0 day
MCF7 = experiment: Anti-proliferative activity against human MCF7 cells assessed as cell growth inhibition incubated for 72 hrs by MTT assay; format: functional, cell-based; settings: MCF7, 72 h
[4] = target: Tyrosine-protein kinase JAK2 (Homo sapiens, UniProt O60674); experiment: Inhibition of JAK2 (unknown origin)
Chain of Tyrosine-protein kinase JAK2 (O60674 whole entry): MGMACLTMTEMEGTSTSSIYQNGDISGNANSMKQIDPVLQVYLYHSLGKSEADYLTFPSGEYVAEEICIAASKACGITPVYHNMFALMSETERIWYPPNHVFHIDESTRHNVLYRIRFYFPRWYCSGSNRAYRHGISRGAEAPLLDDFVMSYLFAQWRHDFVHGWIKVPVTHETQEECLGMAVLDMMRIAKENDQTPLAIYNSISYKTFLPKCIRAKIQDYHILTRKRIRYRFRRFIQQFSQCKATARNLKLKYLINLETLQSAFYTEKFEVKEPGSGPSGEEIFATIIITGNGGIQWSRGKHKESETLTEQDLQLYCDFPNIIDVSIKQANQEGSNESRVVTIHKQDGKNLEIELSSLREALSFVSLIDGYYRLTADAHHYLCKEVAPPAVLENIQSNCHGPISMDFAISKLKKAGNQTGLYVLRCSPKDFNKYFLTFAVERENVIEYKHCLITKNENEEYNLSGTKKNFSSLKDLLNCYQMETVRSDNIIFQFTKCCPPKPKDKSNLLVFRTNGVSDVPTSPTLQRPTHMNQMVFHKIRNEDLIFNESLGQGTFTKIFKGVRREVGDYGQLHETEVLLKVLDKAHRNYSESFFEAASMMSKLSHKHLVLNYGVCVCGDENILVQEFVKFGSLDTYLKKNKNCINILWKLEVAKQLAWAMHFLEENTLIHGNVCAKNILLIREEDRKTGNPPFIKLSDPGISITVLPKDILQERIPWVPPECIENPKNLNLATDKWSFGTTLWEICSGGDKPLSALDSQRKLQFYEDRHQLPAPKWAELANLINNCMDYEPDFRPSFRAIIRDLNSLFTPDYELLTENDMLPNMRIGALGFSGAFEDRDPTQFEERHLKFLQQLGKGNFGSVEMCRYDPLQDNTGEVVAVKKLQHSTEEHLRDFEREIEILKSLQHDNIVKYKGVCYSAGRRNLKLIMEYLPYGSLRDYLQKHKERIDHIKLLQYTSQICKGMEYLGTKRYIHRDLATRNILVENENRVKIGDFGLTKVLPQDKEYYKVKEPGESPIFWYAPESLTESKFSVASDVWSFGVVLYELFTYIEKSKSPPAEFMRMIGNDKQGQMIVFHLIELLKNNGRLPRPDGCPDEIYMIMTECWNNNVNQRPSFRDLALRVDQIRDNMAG

Structure (SMILES) | IC50 (MDA-MB-231) | IC50 (Hs-578T) | inhibition in vivo at 2.5 mg/kg (HCC1806 [1]) | IC50 (HCC1806 [2]) | Activity (HCC1806 [3]) | IC50 (MCF7) | IC50 [4]
COc1cccc2c1C(=O)c1c(O)c3c(c(O)c1C2=O)C[C@@](O)(C(=O)CO)C[C@@H]3O[C@H]1C[C@H](N)[C@H](O)[C@H](C)O1 [DOXORUBICIN] | 0.21 µM | 1.07 µM | 43.2% | 0.34 µM | Active |  | 
COc1cc(Nc2ccccc2C(=O)NCCc2c[nH]c3ccccc23)cc(OC)c1OC | 99.7 µM | 2.18 µM |  | 2.41 µM |  | > 100 µM | > 10 µM
COc1cc(Nc2c(C(=O)NCCc3c[nH]c4ccccc34)ccc(F)c2F)cc(OC)c1OC | 85.3 µM | > 100 µM |  | 90 µM |  | 78 µM | 
COc1cc(C)c2[nH]cc(CCNC(=O)c3ccc(F)cc3Nc3cc(OC)c(OC)c(OC)c3)c2c1 | 2.12 µM | 19.8 µM |  | 15.1 µM |  | > 100 µM | 
COc1cc(Nc2cc(F)ccc2C(=O)NCCc2c[nH]c3cccc(Br)c23)cc(OC)c1OC | 3.55 µM | 7.97 µM |  | 2.16 µM |  | 4.37 µM | 
COc1cc(Nc2cc(C)ccc2C(=O)NCCc2c[nH]c3ccccc23)cc(OC)c1OC | > 100 µM | > 100 µM |  | 26.5 µM |  | > 100 µM | 
COc1cc(Nc2cc(F)ccc2C(=O)NCCc2c[nH]c3c(C)cccc23)cc(OC)c1OC | 1.97 µM | 2.1 µM |  | 3.35 µM |  | 2.12 µM | 
COc1cc(Nc2cc(F)ccc2C(=O)NCCc2c[nH]c3ccc(Br)cc23)cc(OC)c1OC | 2.94 µM | 51.5 µM |  | 3.46 µM |  | 8.65 µM | 
COc1cc(Nc2ccc(Cl)cc2C(=O)NCCc2c[nH]c3ccccc23)cc(OC)c1OC | > 100 µM | > 100 µM |  | > 100 µM |  | > 100 µM | 
COc1cc(Nc2cc(F)ccc2C(=O)NCCc2c[nH]c3cccc(Cl)c23)cc(OC)c1OC | 1.99 µM | 3.02 µM |  | 1.82 µM |  | 3.26 µM | 
COc1cc(Nc2cc(F)ccc2C(=O)NCCc2c[nH]c3cccc(F)c23)cc(OC)c1OC | 0.53 µM | 1.86 µM |  | 0.47 µM |  | 0.97 µM | 
COc1cc(Nc2cccc(C)c2C(=O)NCCc2c[nH]c3ccccc23)cc(OC)c1OC | > 100 µM | > 100 µM |  | > 100 µM |  | > 100 µM | 
COc1cc(Nc2ccc(Br)cc2C(=O)NCCc2c[nH]c3ccccc23)cc(OC)c1OC | > 100 µM | > 100 µM |  | > 100 µM |  | > 100 µM | 
COc1cc(Nc2cccc(C(F)(F)F)c2C(=O)NCCc2c[nH]c3ccccc23)cc(OC)c1OC | > 100 µM | > 100 µM |  | > 100 µM |  | 67 µM | 
COc1cc(Nc2cc(F)ccc2C(=O)NCCc2c[nH]c3c(C(F)(F)F)cccc23)cc(OC)c1OC | 4.03 µM | 19.4 µM |  | 10.5 µM |  | 8.98 µM | 
COc1cc(Nc2c(F)cc(F)cc2C(=O)NCCc2c[nH]c3ccccc23)cc(OC)c1OC | > 100 µM | > 100 µM |  | > 100 µM |  | > 100 µM | 
COc1cc(Nc2cc(F)ccc2C(=O)NCCc2c[nH]c3cc(Cl)ccc23)cc(OC)c1OC | 3.08 µM | 57.7 µM |  | 8.46 µM |  | 12.2 µM | 
COc1cc(Nc2cc(F)ccc2C(=O)NCCc2c[nH]c3c(Br)cccc23)cc(OC)c1OC | 2.44 µM | 13.1 µM |  | 1.94 µM |  | 3.56 µM | 
COc1cc(Nc2cc(F)ccc2C(=O)NCCc2c[nH]c3cccc(OC)c23)cc(OC)c1OC | 2.96 µM | 34.7 µM |  | 18.2 µM |  | 20.6 µM | 

Structure (SMILES) | IC50 (MDA-MB-231) | IC50 (Hs-578T) | inhibition in vivo at 2.5 mg/kg (HCC1806 [1]) | IC50 (HCC1806 [2]) | Activity (HCC1806 [3]) | IC50 (MCF7) | IC50 [4]
COc1cc(Nc2cc(F)ccc2C(=O)NCCc2c[nH]c3ccc(Cl)cc23)cc(OC)c1OC | 2.2 µM | 41.3 µM |  | 11.3 µM |  | 8.75 µM | 
COc1cc(Nc2cc(F)cc(C)c2C(=O)NCCc2c[nH]c3ccccc23)cc(OC)c1OC | 50.4 µM | > 100 µM |  | 70.7 µM |  | 29.4 µM | 
COc1cc(Nc2cc(F)ccc2C(=O)NCCc2c[nH]c3c(OC)cccc23)cc(OC)c1OC | 20.9 µM | 2.86 µM |  | 2.57 µM |  | > 100 µM | 
COc1cc(Nc2cccc(F)c2C(=O)NCCc2c[nH]c3ccccc23)cc(OC)c1OC | 24.3 µM | 24.5 µM |  | 3.25 µM |  | > 100 µM | 
COc1cc(Br)c2c(CCNC(=O)c3ccc(F)cc3Nc3cc(OC)c(OC)c(OC)c3)c[nH]c2c1 | 58.2 µM | > 100 µM |  | > 100 µM |  | > 100 µM | 
COc1cc(Nc2cccc(Cl)c2C(=O)NCCc2c[nH]c3ccccc23)cc(OC)c1OC | 95.1 µM | > 100 µM |  | > 100 µM |  | 41.5 µM | 
COc1cc(Nc2cc(F)c(F)cc2C(=O)NCCc2c[nH]c3ccccc23)cc(OC)c1OC | 41.8 µM | 4.38 µM |  | 8.3 µM |  | > 100 µM | 
COc1cc2[nH]cc(CCNC(=O)c3ccc(F)cc3Nc3cc(OC)c(OC)c(OC)c3)c2cc1OC | 94 µM | > 100 µM |  | 91.5 µM |  | 65.8 µM | 
COc1cc(Nc2cc(F)ccc2C(=O)NCCc2c[nH]c3ccc(F)c(F)c23)cc(OC)c1OC | 0.68 µM | 1.32 µM |  | 0.92 µM |  | 1.86 µM | 
COc1cc(Nc2c(C(=O)NCCc3c[nH]c4ccccc34)cccc2[N+](=O)[O-])cc(OC)c1OC | 31.3 µM | > 100 µM |  | > 100 µM |  | > 100 µM | 
COc1cc(Nc2cc(F)ccc2C(=O)NCCc2c[nH]c3ccc(F)cc23)cc(OC)c1OC | 0.83 µM | 1.37 µM |  | 2.4 µM |  | 1.38 µM | 
COc1cc(Nc2cc(F)ccc2C(=O)NCCc2c[nH]c3cccc(C)c23)cc(OC)c1OC | 2.9 µM | 3.44 µM |  | 2.39 µM |  | 2.7 µM | 
COc1ccc2[nH]cc(CCNC(=O)c3ccc(F)cc3Nc3cc(OC)c(OC)c(OC)c3)c2c1 | 4.66 µM | > 100 µM |  | 18 µM |  | 23.6 µM | 
COc1cc(Nc2ccc(F)cc2C(=O)NCCc2c[nH]c3ccccc23)cc(OC)c1OC | > 100 µM | 55.8 µM |  | 12.5 µM |  | > 100 µM | 
COc1cc(Nc2cc(F)ccc2C(=O)NCCc2c[nH]c3cc(C)ccc23)cc(OC)c1OC | 11.9 µM | > 100 µM |  | 34.5 µM |  | 74 µM | 
COc1ccc(Nc2cc(OC)c(OC)c(OC)c2)c(C(=O)NCCc2c[nH]c3ccccc23)c1 | 82.1 µM | > 100 µM |  | 29.9 µM |  | > 100 µM | 
COc1cc(Nc2cc(F)ccc2C(=O)NCCc2c[nH]c3ccc(C)cc23)cc(OC)c1OC | 2.79 µM | 55.5 µM |  | 7.81 µM |  | 8.77 µM | 
COc1cc(Nc2ccc(C(F)(F)F)cc2C(=O)NCCc2c[nH]c3ccccc23)cc(OC)c1OC | 82.7 µM | > 100 µM |  | > 100 µM |  | 43.3 µM | 
